Entries after “also recorded” stand apart in the source; their conditions may differ.
How the values were obtained:
[1] = test system: GIPR^dn transgenic (tg) and control (wt) pigs; assay: GIP/Exendin-4 stimulation test in 10- to 13-week-old pigs; assay type: in vivo, pig; conditions: for insulinotropic effect in GIPR^dn transgenic pigs compared to controls: 10- to 13-week-old (eleven-week-old) pigs, intravenously administrated with glucose
Description: (§1) For the oral glucose tolerance test (OGTT), one central venous catheter (Cavafix® Certo®, B. Braun, Melsungen, Germany) was inserted non-surgically into the external jugular vein under general anesthesia according to the manufacturer's instructions. For accomplishment of the GIP/Exendin-4 stimulation test as well as the intravenous glucose tolerance test, two central venous catheters (Cavafix® Certo®, B. Braun) were surgically inserted into the external jugular vein under general anesthesia using a modified method of Moritz et al. (24). At the start of the study period, all animals had fully recovered from the surgical procedure as evaluated by normal behavior and food intake.
(§2) The OGTT was performed in 11-week old and 5-month-old non-restrained, freely moving animals. After an 18-h overnight fast, animals were fed 2 g/kg BW glucose (25) mixed with 100 g of commercial pig fodder (Deuka primo care in 11-week-old pigs; Deuka porfina U in 5-month-old pigs; Deuka, Düsseldorf, Germany). The meal was eaten from a bowl under supervision. Blood samples were obtained from the jugular vein catheter at −10, 0, 15, 30, 45, 60, 90 and 120 minutes relative to the glucose load in 11-week-old pigs and at −15, −5, 0, 15, 30, 45, 60, 90, 120, 150 and 180 minutes relative to the glucose load in 5-month-old pigs. Serum glucose levels were determined using an AU 400 autoanalyzer (Olympus, Hamburg, Germany) while serum insulin levels were measured in duplicate using a porcine insulin radioimmunoassay (RIA) kit (Millipore, Billerica, USA) according to the manufacturer's instructions.
(§3) The GIP/Exendin-4 stimulation test was performed in 10- to 13-week old and 7-months-old (28-36 weeks) non-restrained freely moving animals. In 7-months-old animals, 0.5 g glucose/kg BW were administered intravenously as a bolus of concentrated 50% glucose solution following an 18-hour fasting period (26). After three minutes 20 pmol/kg BW of synthetic porcine GIP (Bachem, Weil am Rhein, Germany) or 10 pmol/kg BW of synthetic Exendin-4 (Bachem) were administered intravenously. Blood samples were collected −15, 0, 1, 3, 6, 9, 11, 13, 18, 23, 28, 33, 48 and 60 minutes relative to the glucose load. In 10- to 13-week-old animals, 0.5 g glucose/kg BW were administered intravenously as a bolus of concentrated 50% glucose solution following an 18-hour fasting period (26). Right after glucose administration 80 pmol/kg BW of synthetic porcine GIP (Bachem, Weil am Rhein, Germany) or 40 pmol/kg BW of synthetic Exendin-4 (Bachem) were administered intravenously. […]
(§4) All data are presented as means±SEM. […] Data from the GIP/Exendin-4 stimulation tests in 10- to 13-week-old animals as well as from proliferation index (Ki67 immunohistochemistry) were analyzed using ANOVA (analysis of variance) (SAS). […]

[2] = test system: GIPR^dn transgenic (tg) and control (wt) pigs; assay: GIP/Exendin-4 stimulation test in 7-months-old (28-36 weeks) pigs; assay type: in vivo, pig; conditions: 28- to 36-week-old; for insulin secretion compared to glucose administration alone: 10 pmol/kg BW Exendin-4 i.v. 3 min after i.v. glucose, p<0.05
Description: as §1, §2, §3, §4

## glucose-dependent insulinotropic polypeptide [GIP]
[1]
  insulinotropic effect in GIPR^dn transgenic pigs compared to controls: blunted; also recorded: impaired
[1]; 10- to 13-week-old pigs, 80 pmol/kg BW GIP i.v. together with 0.5 g/kg i.v. glucose
  serum insulin levels in control pigs compared to GIPR^dn transgenic pigs: significantly (p<0.01) higher insulin levels
[2]; GIPR^dn transgenic pigs, 20 pmol/kg BW GIP i.v. 3 min after 0.5 g/kg i.v. glucose, glucose alone 7 μU/ml
  increase in glucose-induced insulin concentration (Δ insulin): 11 μU/ml
[2]; control (wt) pigs, 20 pmol/kg BW GIP i.v. 3 min after 0.5 g/kg i.v. glucose, glucose alone 27 μU/ml
  increase in i.v. glucose-induced serum insulin concentration (Δ insulin): 58 μU/ml

## Exendin-4
[1]
  insulinotropic effect in GIPR^dn transgenic pigs compared to controls: enhanced
[1]; 10- to 13-week-old pigs, 40 pmol/kg BW Exendin-4 i.v. together with 0.5 g/kg i.v. glucose, p<0.01
  insulin secretion in GIPR^dn transgenic pigs compared to controls: increased insulin secretion; also recorded: significantly higher increase
[2]; GIPR^dn transgenic pigs
  insulin secretion compared to glucose administration alone: significant stimulation; also recorded: significant increase
[2]; control pigs
  insulin secretion compared to glucose administration alone: significant increase
